Measurements: patent publication US8088812B2, “Sigma receptor inhibitors” (Laboratorios Del Dr. Esteve, S.A., priority 2006, dated 2012)

Test system: not given
Assay: not given
Conditions: not given

Compound	melting point
CCN(CC)CCOc1ccn(C2CCCCC2)n1.O=C(O)C(=O)O [Example 7, 2-(1-cyclohexyl-1H-pyrazol-3-yloxy)-N,N-diethylethanamine oxalate]	85 to 90 °C
O=C(O)C(=O)O.c1ccc(C2CCN(CCOc3ccn(C4CCCCC4)n3)CC2)cc1 [Example 11, 1-(2-(1-Cyclohexyl-1H-pyrazol-3-yloxy)ethyl)-4-phenylpiperidine oxalate]	122 to 128 °C
CCN(CC)CCOc1ccn(C(C)(C)C)n1.O=C(O)C(=O)O	96 to 98 °C
O=C(O)C(=O)O.c1cn(C2CCCCC2)nc1OCCN1CCOCC1 [Example 5, 4-(2-(1-cyclohexyl-1H-pyrazol-3-yloxy)ethyl)morpholine oxalate]	135 to 140 °C

Other lines, results leading:

melting point	Compound
123 to 126 °C	CC(C)(C)n1ccc(OCCN2CCCCC2)n1.O=C(O)C(=O)O [Example 2, 1-[2-(1-tert-butyl-1H-pyrazol-3-yloxy)ethyl]piperidine oxalate]
105 to 110 °C	O=C(O)C(=O)O.c1cn(C2CCCCC2)nc1OCCN1CCCCC1 [Example 6, 1-(2-(1-cyclohexyl-1H-pyrazol-3-yloxy)ethyl)piperidine oxalate]
117 to 119 °C	O=C(O)C(=O)O.c1cn(C2CCCCC2)nc1OCCN1CCCC1 [Example 8, 1-Cyclohexyl-3-(2-(pyrrolidin-1-yl)ethoxy)-1H-pyrazole oxalate]
82 to 88 °C	CC(C)(C)n1ccc(OCCN2CCCC2)n1.O=C(O)C(=O)O [Example 4, 1-tert-butyl-3-[2-(pyrrolidin-1-yl)ethoxy]-1H-pyrazole oxalate]

Molecular target: T1, σ1-receptor (Cavia porcellus, UniProt Q60492)
T1 construct: guinea pig brains are homogenized; from tissue; host or cells: guinea pig brain membranes
T1 sequence (Q60492 whole entry): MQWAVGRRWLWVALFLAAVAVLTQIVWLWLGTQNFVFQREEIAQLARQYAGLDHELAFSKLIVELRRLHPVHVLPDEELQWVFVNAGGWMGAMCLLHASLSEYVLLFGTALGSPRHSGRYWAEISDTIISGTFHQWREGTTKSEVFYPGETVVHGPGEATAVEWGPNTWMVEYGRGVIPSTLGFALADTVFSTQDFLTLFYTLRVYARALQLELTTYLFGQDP
Assay: Sigma-1 receptor binding assay, [3H](+)-pentazocine, brain membranes
Conditions: guinea pig brain membranes
Protocol: Brain membrane preparation and binding assays for the σ1-receptor are performed as described (DeHaven-Hudkins et al., 1992) with some modifications. In brief, guinea pig brains are homogenized in 10 vols. (w/v) of Tris-HCl 50 mM 0.32 M sucrose, pH 7.4, with a Kinematica Polytron PT 3000 at 15000 r.p.m. for 30 s. The homogenate is centrifuged at 1000 g for 10 min at 4° C. and the supernatants collected and centrifuged again at 48000 g for 15 min at 4° C. The pellet is resuspended in 10 volumes of Tris-HCl buffer (50 mM, pH 7.4), incubated at 37° C. for 30 min, and centrifuged at 48000 g for 20 min at 4° C. Following this, the pellet is resuspended in fresh Tris-HCl buffer (50 mM, pH 7.4) and stored on ice until use.
Each assay tube contains 10 μL of [^3H](+)-pentazocine (final concentration of 0.5 nM), 900 μL of the tissue suspension to a final assay volume of 1 mL and a final tissue concentration of approximately 30 mg tissue net weight/mL. Non-specific binding is defined by addition of a final concentration of 1 μM haloperidol. All tubes are incubated at 37° C. for 150 min before termination of the reaction by rapid filtration over Schleicher & Schuell GF 3362 glass fibre filters [previously soaked in a solution of 0.5% polyethylenimine for at least 1 h]. Filters are then washed four times with 4 mL of cold Tris-HCl buffer (50 mM, pH 7.4). Following addition of scintillation cocktail, the samples are allowed to equilibrate overnight. The amount of bound radioactivity is determined by liquid scintillation spectrometry using a Wallac Winspectral 1414 liquid scintillation counter. Protein concentrations are determined by the method of Lowry et al. (1951).

Compound	Ki
O=C(O)C(=O)O.c1ccc(C2CCN(CCOc3ccn(C4CCCCC4)n3)CC2)cc1 [Example 11, 1-(2-(1-Cyclohexyl-1H-pyrazol-3-yloxy)ethyl)-4-phenylpiperidine oxalate]	8.6 nM
O=C(O)C(=O)O.c1cn(C2CCCCC2)nc1OCCN1CCOCC1 [Example 5, 4-(2-(1-cyclohexyl-1H-pyrazol-3-yloxy)ethyl)morpholine oxalate]	4.1 ± 0.1 nM

Further lines, results first:

Ki	Compound
1 ± 0.3 nM	O=C(O)C(=O)O.c1cn(C2CCCCC2)nc1OCCN1CCCCC1 [Example 6, 1-(2-(1-cyclohexyl-1H-pyrazol-3-yloxy)ethyl)piperidine oxalate]
2.5 nM	O=C(O)C(=O)O.c1cn(C2CCCCC2)nc1OCCN1CCCC1 [Example 8, 1-Cyclohexyl-3-(2-(pyrrolidin-1-yl)ethoxy)-1H-pyrazole oxalate]

Test system: capsaicin-induced allodynia
Assay: Von Frey filaments in a model of capsaicin-induced allodynia
Type: in vivo
Conditions: mice, percent analgesia compared to control, mechanical stimulus after capsaicin injection into paw
Protocol: This model is described in detail in the experimental part of WO 2006/010587 A1, examples 1 and 2, the description being included here by reference. Capsaicin is thereby injected into experimental animals to produce acute pain followed by allodynia.
Briefly after habituation mice were first treated with the test-compound (or not in controls). Then capsaicin (1% DMSO) is injected into their paw resulting in developing pain in the effected paw. The effected paw is then treated with a mechanical stimulus and the latency time before the paw is withdrawn is measured.
The results obtained for examples 5, 6 and 8 are shown in table (II) as percent analgesia compared to control achieved at […] 16 mg/kg i.p.

Compound	Analgesia (16 mg/kg), i.p. %
O=C(O)C(=O)O.c1cn(C2CCCCC2)nc1OCCN1CCOCC1 [Example 5, 4-(2-(1-cyclohexyl-1H-pyrazol-3-yloxy)ethyl)morpholine oxalate]	20%
O=C(O)C(=O)O.c1cn(C2CCCCC2)nc1OCCN1CCCCC1 [Example 6, 1-(2-(1-cyclohexyl-1H-pyrazol-3-yloxy)ethyl)piperidine oxalate]	70%
O=C(O)C(=O)O.c1cn(C2CCCCC2)nc1OCCN1CCCC1 [Example 8, 1-Cyclohexyl-3-(2-(pyrrolidin-1-yl)ethoxy)-1H-pyrazole oxalate]	65%
